In PubChem BioAssay AID270 (DTP/NCI, 2004) one finds T/C data, which are given here for twelve compounds.

The structures appear in SMILES notation. “And” between values parts separate entries of the source, which are not always exact repeats. Identical values can stand only once. Records with an inconclusive call do not appear.

The subject of this experiment is BDF1 mice, s.c. Lewis lung carcinoma, T/C %. In words: NCI In Vivo Anticancer Drug Screen. Data for tumor model Lewis Lung Carcinoma (subcutaneous) in B6D2F1 (BDF1) mice. How it is done: The antitumor activity of compounds was measured in mice bearing transplantable tumors. Survival or tumor size were measured and the results are expressed as the measurement made in the treated group (T) divided by the measurement made in the vehicle treated control group (C). The tumor model used in this assay is Lewis Lung Carcinoma (subcutaneous) in B6D2F1 (BDF1) mice

For `CSc1ncnc2c1ncn2C1CCCO1` (stereo unspecified), the T/C by setting is: (endpoint: mean tumor weight, dose: 10.0 mg/kg/injection, schedule: Q01DX011 (ip), vehicle: other, higher = larger tumour) 103 % of control; (endpoint: mean tumor weight, dose: 20.0 mg/kg/injection, schedule: Q01DX011 (ip), vehicle: other, higher = larger tumour) 53 % of control; (endpoint: mean tumor weight, dose: 40.0 mg/kg/injection, schedule: Q01DX011 (ip), vehicle: other, higher = larger tumour) 68 % of control; (endpoint: mean tumor weight, dose: 80.0 mg/kg/injection, schedule: Q01DX011 (ip), vehicle: other, higher = larger tumour) 86 % of control.

On to `Cc1ncc([N+](=O)[O-])n1CCO`, for which the T/C runs as follows: (endpoint: median survival time, dose: 37.5 mg/kg/injection, schedule: Q01DX009 (ip), vehicle: Klucel (hydroxypropylcellulose) (HPC), higher = longer survival) 98 % of control; (endpoint: median survival time, dose: 37.5 mg/kg/injection, schedule: Q04DX003 (ip), vehicle: Klucel (hydroxypropylcellulose) (HPC), higher = longer survival) 92 % of control; (endpoint: median survival time, dose: 75.0 mg/kg/injection, schedule: Q01DX009 (ip), vehicle: Klucel (hydroxypropylcellulose) (HPC), higher = longer survival) 106 % of control; (endpoint: median survival time, dose: 75.0 mg/kg/injection, schedule: Q04DX003 (ip), vehicle: Klucel (hydroxypropylcellulose) (HPC), higher = longer survival) 97 % of control; (endpoint: median survival time, dose: 150.0 mg/kg/injection, schedule: Q01DX009 (ip), vehicle: Klucel (hydroxypropylcellulose) (HPC), higher = longer survival) 96 % of control; (endpoint: median survival time, dose: 150.0 mg/kg/injection, schedule: Q04DX003 (ip), vehicle: Klucel (hydroxypropylcellulose) (HPC), higher = longer survival) 96 % of control. In addition, the T/C was 97 % of control (endpoint: median survival time, dose: 300.0 mg/kg/injection, schedule: Q01DX009 (ip), vehicle: Klucel (hydroxypropylcellulose) (HPC), higher = longer survival); 100 % of control (endpoint: median survival time, dose: 300.0 mg/kg/injection, schedule: Q04DX003 (ip), vehicle: Klucel (hydroxypropylcellulose) (HPC), higher = longer survival); 105 % of control (endpoint: median survival time, dose: 600.0 mg/kg/injection, schedule: Q01DX009 (ip), vehicle: Klucel (hydroxypropylcellulose) (HPC), higher = longer survival); 91 % of control (endpoint: median survival time, dose: 600.0 mg/kg/injection, schedule: Q04DX003 (ip), vehicle: Klucel (hydroxypropylcellulose) (HPC), higher = longer survival).

For `COC1OC(CNC(=O)N(C)N=O)C(O)C(O)C1O` (stereo unspecified), the T/C was 102 % of control (endpoint: median survival time, dose: 50.0 mg/kg/injection, schedule: Q01DX009 (ip), vehicle: saline, higher = longer survival); 112 % of control (endpoint: median survival time, dose: 100.0 mg/kg/injection, schedule: Q01DX009 (ip), vehicle: saline, higher = longer survival); 97 % of control (endpoint: median survival time, dose: 200.0 mg/kg/injection, schedule: Q01DX009 (ip), vehicle: saline, higher = longer survival).

As for `O=c1ccn(C2OC(CO)C(O)C2O)c(=O)[nH]1` (stereo unspecified), the T/C is 97 % of control and 119 % of control (endpoint: median survival time, dose: 0.2 mg/kg/injection, schedule: Q01DX011 (adlb), vehicle: water, higher = longer survival); 103 % of control (endpoint: median survival time, dose: 0.6 mg/kg/injection, schedule: Q01DX011 (adlb), vehicle: water, higher = longer survival); 86 % of control (endpoint: median survival time, dose: 1.0 mg/kg/injection, schedule: Q01DX011 (adlb), vehicle: water, higher = longer survival); 106 % of control (endpoint: median survival time, dose: 1.5 mg/kg/injection, schedule: Q01DX011 (adlb), vehicle: water, higher = longer survival); 76 % of control and 100 % of control (endpoint: median survival time, dose: 2.0 mg/kg/injection, schedule: Q01DX011 (adlb), vehicle: water, higher = longer survival).

For the compound `CC(C)NCC(=O)c1ccc(O)c(O)c1`, the T/C (endpoint: median survival time, dose: 5.0 mg/kg/injection, schedule: Q01DX009 (ip), vehicle: saline, higher = longer survival) was 107 % of control; the T/C (endpoint: median survival time, dose: 10.0 mg/kg/injection, schedule: Q01DX009 (ip), vehicle: saline, higher = longer survival) was 114 % of control; the T/C (endpoint: median survival time, dose: 20.0 mg/kg/injection, schedule: Q01DX009 (ip), vehicle: saline, higher = longer survival) was 114 % of control; the T/C (endpoint: median survival time, dose: 40.0 mg/kg/injection, schedule: Q01DX009 (ip), vehicle: saline, higher = longer survival) is 111 % of control.

Turning to `CCOC(C)C(/C=N/NC(N)=S)=NNC(N)=S` (stereo unspecified), the T/C is 77 % of control (endpoint: mean tumor weight, dose: 30.0 mg/kg/injection, schedule: Q01DX011 (ip), vehicle: saline, higher = larger tumour); 81 % of control (endpoint: mean tumor weight, dose: 60.0 mg/kg/injection, schedule: Q01DX011 (ip), vehicle: saline, higher = larger tumour); 66 % of control (endpoint: mean tumor weight, dose: 120.0 mg/kg/injection, schedule: Q01DX011 (ip), vehicle: saline, higher = larger tumour).

For the compound `C=C(C)C12CC(COC(=O)c3ccccc3)C34OC5(OC1C3C1OC1(CO)C(O)C1(O)C(OC(=O)c3ccccc3)C(C)C(C(C)CCCCCCC5O)C14)O2` (stereo unspecified), the T/C runs as follows: (endpoint: median survival time, dose: 3.8 micrograms/kg/injection, schedule: Q01DX009 (ip), vehicle: saline, higher = longer survival) 107 % of control; (endpoint: median survival time, dose: 7.5 micrograms/kg/injection, schedule: Q01DX009 (ip), vehicle: saline, higher = longer survival) 100 % of control.

On to `C(/C=C/C=C/N1CCCCC1)=[N+]1CCCCC1`, for which the T/C is, setting by setting: (endpoint: median survival time, dose: 0.13 mg/kg/injection, schedule: Q01DX009 (ip), vehicle: saline, higher = longer survival) 101 % of control; (endpoint: median survival time, dose: 0.25 mg/kg/injection, schedule: Q01DX009 (ip), vehicle: saline, higher = longer survival) 110 % of control; (endpoint: median survival time, dose: 0.5 mg/kg/injection, schedule: Q01DX009 (ip), vehicle: saline, higher = longer survival) 117 % of control; (endpoint: median survival time, dose: 1.0 mg/kg/injection, schedule: Q01DX009 (ip), vehicle: saline, higher = longer survival) 110 % of control.

`CNC1=C(N2CC2)C(=O)C(NC)=C(N2CC2)C1=O`: the T/C is 120 % of control (endpoint: median survival time, dose: 0.02 mg/kg/injection, schedule: Q01DX009 (ip), vehicle: saline, higher = longer survival); 113 % of control (endpoint: median survival time, dose: 0.1 mg/kg/injection, schedule: Q01DX009 (ip), vehicle: saline, higher = longer survival); 105 % of control (endpoint: median survival time, dose: 0.2 mg/kg/injection, schedule: Q01DX009 (ip), vehicle: saline, higher = longer survival); 124 % of control (endpoint: median survival time, dose: 0.4 mg/kg/injection, schedule: Q01DX009 (ip), vehicle: saline, higher = longer survival).

On to `CO[C@H]1/C=C/O[C@@]2(C)Oc3c(C)c(O)c4c(O)c(c(/C=N/N5C(C)CN(Cc6ccccc6)CC5C)c(O)c4c3C2=O)NC(=O)/C(C)=C\C=C\[C@H](C)[C@H](O)[C@@H](C)[C@@H](O)[C@@H](C)[C@H](OC(C)=O)[C@@H]1C` (stereo partly specified), for which the T/C runs as follows: (endpoint: mean tumor weight, dose: 50.0 mg/kg/injection, schedule: Q01DX009 (ip), vehicle: saline with Tween-80, higher = larger tumour) 112 % of control; (endpoint: mean tumor weight, dose: 100.0 mg/kg/injection, schedule: Q01DX009 (ip), vehicle: saline with Tween-80, higher = larger tumour) 93 % of control; (endpoint: mean tumor weight, dose: 200.0 mg/kg/injection, schedule: Q01DX009 (ip), vehicle: saline with Tween-80, higher = larger tumour) 65 % of control; (endpoint: mean tumor weight, dose: 400.0 mg/kg/injection, schedule: Q01DX009 (ip), vehicle: saline with Tween-80, higher = larger tumour) 47 % of control; (endpoint: median survival time, dose: 1.6 mg/kg/injection, schedule: Q02DX Z (oral), vehicle: Klucel (hydroxypropylcellulose) (HPC), higher = longer survival) 95 % of control; (endpoint: median survival time, dose: 3.12 mg/kg/injection, schedule: Q02DX Z (oral), vehicle: Klucel (hydroxypropylcellulose) (HPC), higher = longer survival) 91 % of control. The T/C reads like this: (endpoint: median survival time, dose: 12.5 mg/kg/injection, schedule: Q02DX Z (oral), vehicle: Klucel (hydroxypropylcellulose) (HPC), higher = longer survival) 87 % of control; (endpoint: median survival time, dose: 25.0 mg/kg/injection, schedule: Q02DX Z (oral), vehicle: Klucel (hydroxypropylcellulose) (HPC), higher = longer survival) 91 % of control; (endpoint: median survival time, dose: 50.0 mg/kg/injection, schedule: Q02DX Z (oral), vehicle: Klucel (hydroxypropylcellulose) (HPC), higher = longer survival) 95 % of control; (endpoint: median survival time, dose: 100.0 mg/kg/injection, schedule: Q01DX009 (ip), vehicle: saline with Tween-80, higher = longer survival) 112 % of control; (endpoint: median survival time, dose: 100.0 mg/kg/injection, schedule: Q02DX Z (oral), vehicle: Klucel (hydroxypropylcellulose) (HPC), higher = longer survival) 94 % of control; (endpoint: median survival time, dose: 200.0 mg/kg/injection, schedule: Q01DX009 (ip), vehicle: saline with Tween-80, higher = longer survival) 100 % of control. Also, the T/C (endpoint: median survival time, dose: 200.0 mg/kg/injection, schedule: Q02DX Z (oral), vehicle: Klucel (hydroxypropylcellulose) (HPC), higher = longer survival) is 102 % of control.

As for `CC[CH2][Pb]([CH2]CC)([CH2]CC)[O]C(=O)C(Cl)(Cl)Cl`, the T/C runs as follows: (endpoint: median survival time, dose: 0.19 mg/kg/injection, schedule: Q01DX009 (ip), vehicle: saline with Tween-80, higher = longer survival) 101 % of control; (endpoint: median survival time, dose: 0.38 mg/kg/injection, schedule: Q01DX009 (ip), vehicle: saline with Tween-80, higher = longer survival) 94 % of control; (endpoint: median survival time, dose: 0.75 mg/kg/injection, schedule: Q01DX009 (ip), vehicle: saline with Tween-80, higher = longer survival) 90 % of control; (endpoint: median survival time, dose: 1.5 mg/kg/injection, schedule: Q01DX009 (ip), vehicle: saline with Tween-80, higher = longer survival) 103 % of control; (endpoint: median survival time, dose: 3.0 mg/kg/injection, schedule: Q01DX009 (ip), vehicle: saline with Tween-80, higher = longer survival) 106 % of control; (endpoint: median survival time, dose: 6.0 mg/kg/injection, schedule: Q01DX009 (ip), vehicle: saline with Tween-80, higher = longer survival) 106 % of control.

With `CC/C(=C(\CC)c1ccc(OC)cc1)c1ccc(O)cc1`, the T/C (endpoint: mean tumor weight, dose: 15.0 mg/kg/injection, schedule: Q01DX011 (sc), vehicle: steriod suspending solution, higher = larger tumour) was 54 % of control; the T/C (endpoint: mean tumor weight, dose: 30.0 mg/kg/injection, schedule: Q01DX011 (sc), vehicle: steriod suspending solution, higher = larger tumour) was 35 % of control; the T/C (endpoint: mean tumor weight, dose: 60.0 mg/kg/injection, schedule: Q01DX011 (sc), vehicle: steriod suspending solution, higher = larger tumour) was 23 % of control; the T/C (endpoint: mean tumor weight, dose: 100.0 mg/kg/injection, schedule: Q01DX011 (sc), vehicle: steriod suspending solution, higher = larger tumour) was 7 % of control; the T/C (endpoint: mean tumor weight, dose: 120.0 mg/kg/injection, schedule: Q01DX011 (sc), vehicle: steriod suspending solution, higher = larger tumour) is 31 % of control and 36 % of control; the T/C (endpoint: mean tumor weight, dose: 200.0 mg/kg/injection, schedule: Q01DX011 (sc), vehicle: steriod suspending solution, higher = larger tumour) is 22 % of control. Moreover, the T/C was 31 % of control (endpoint: mean tumor weight, dose: 240.0 mg/kg/injection, schedule: Q01DX011 (sc), vehicle: steriod suspending solution, higher = larger tumour) and 22 % of control (endpoint: mean tumor weight, dose: 300.0 mg/kg/injection, schedule: Q01DX011 (sc), vehicle: steriod suspending solution, higher = larger tumour).
